Experimental data as given in patent US20050215435A1, “Phenylalanine derivatives as herbicides” (priority 2002, published 2005).

Tests used:
Assay in all cases: Greenhouse herbicidal action, post-emergence
Format in all cases: in vivo
Abutilon theophrasti = tested on: Abutilon theophrasti
Text: (§1) The seeds of the test plants were sown separately for each species. For the post-emergence treatment, the test plants were first grown to a height of from 3 to 15 cm, depending on the plant habit, and only then treated with the active compounds which had been suspended or emulsified in water. The test plants were for this purpose either sown directly and grown in the same containers, or they were first grown separately as seedlings and transplanted into the test containers a few days prior to treatment. […] (active substance). Depending on the species, the plants were kept at 10-25° C. or 20-35° C. The test period extended over from 2 to 4 weeks. During this time, the plants were tended, and their response to the individual treatments was evaluated. Evaluation was carried out using a scale from 0 to 100. 100 means no emergence of the plants, or complete destruction of at least the aerial parts and 0 means no damage, or normal course of growth. The plants used in the greenhouse experiments were of the following species: [table]

Chenopodium album = conditions: 1.0 kg of a.s./ha
Text: as §1

Setaria italica = tested on: Setaria italica
Text: as §1

Sinapis alba = tested on: Sinapis alba
Text: as §1

With `CNC(=O)C(NC(=O)c1ccc(F)cc1C(F)(F)F)C(C)c1ccccc1F` (stereo not drawn) [II-7] the “control of Abutilon theophrasti” value (Abutilon theophrasti; 1.0 kg of a.s./ha) was “very good control” and the “control of Chenopodium album” value (Chenopodium album) was “very good control”.
For `CNC(=O)[C@H](Cc1ccccc1C)NC(=O)c1ccc(Cl)c(C(F)F)c1Cl` [Compound I-49], the “control of Abutilon theophrasti” value (Abutilon theophrasti; 1.91 kg of a.s./ha) was “very good control”, the “control of Abutilon theophrasti” value (Abutilon theophrasti; 3.0 kg of a.s./ha) was “very good control” and the “control of Setaria italica” value (Setaria italica; 1.91 kg of a.s./ha) was “very good control”. For the same molecule, the “control of Setaria italica” value (Setaria italica; 3.0 kg of a.s./ha) was “very good control”, the “control of Sinapis alba” value (Sinapis alba; 1.91 kg of a.s./ha) was “very good control” and the “control of Sinapis alba” value (Sinapis alba; 3.0 kg of a.s./ha) was “very good control”.
For `CNC(=O)C(Cc1ccccc1C)NC(=O)c1ccccc1S(C)(=O)=O` (stereo not drawn) [II-111], the “control of Abutilon theophrasti” value (Abutilon theophrasti; 1.0 kg of a.s./ha) was “very good control”, the “control of Setaria italica” value (Setaria italica; 1.0 kg of a.s./ha) was “very good control” and the “control of Sinapis alba” value (Sinapis alba; 1.0 kg of a.s./ha) was “very good control”.
With “Nα-(2-trifluoromethyl-4-fluorobenzoyl)-2-(1-methyl-1-(2-fluorophenyl))glycine-N-methylamide [II-15]” the “control of Abutilon theophrasti” value (Abutilon theophrasti; 0.5 kg of a.s./ha) was “very good control”, the “control of Setaria italica” value (Setaria italica; 0.5 kg of a.s./ha) was “very good control” and the “control of Sinapis alba” value (Sinapis alba; 0.5 kg of a.s./ha) was “very good control”.
In the case of `CNC(=O)[C@H](Cc1cccc(F)c1)NC(=O)c1cc(F)ccc1C(F)(F)F` [Compound I-25], the “control of Abutilon theophrasti” value (Abutilon theophrasti; 0.5 kg of a.s./ha) is reported as “very good control”, the “control of Setaria italica” value (Setaria italica; 0.5 kg of a.s./ha) is reported as “very good control” and the “control of Sinapis alba” value (Sinapis alba; 0.5 kg of a.s./ha) is reported as “very good control”.
`CNC(=O)C(NC(=O)c1ccccc1C(F)(F)F)C(C)c1ccccc1F` (single isomer, unassigned) [Compound I-32] was tested, and the “control of Setaria italica” value (Setaria italica; 0.095 kg of a.s./ha) was “very good control” and the “control of Sinapis alba” value (Sinapis alba; 0.095 kg of a.s./ha) was “very good control”.
`CNC(=O)[C@H](Cc1ccccc1C)NC(=O)c1cccc(F)c1C(F)(F)F` [Compound I-53] was tested, and the “control of Abutilon theophrasti” value (Abutilon theophrasti; 0.5 kg of a.s./ha) was “very good control”, the “control of Setaria italica” value (Setaria italica; 0.5 kg of a.s./ha) was “very good control” and the “control of Sinapis alba” value (Sinapis alba; 0.5 kg of a.s./ha) was “very good control”.
`CNC(=O)[C@H](Cc1ccccc1C)NC(=O)c1ccccc1C(F)(F)F` [Compound I-19] was tested, and the “control of Abutilon theophrasti” value (Abutilon theophrasti; 0.5 kg of a.s./ha) was “very good control” and the “control of Setaria italica” value (Setaria italica; 0.5 kg of a.s./ha) was “very good control”.
For `CNC(=O)C(Cc1ccccc1)NC(=O)c1ccc(F)cc1C(F)(F)F` (stereo not drawn) [II-91], the “control of Abutilon theophrasti” value (Abutilon theophrasti; 2.0 kg of a.s./ha) was “very good control” and the “control of Sinapis alba” value (Sinapis alba; 2.0 kg of a.s./ha) was “very good control”.
In the case of `CNC(=O)[C@H](Cc1ccccc1C)NC(=O)c1ccc(F)cc1C(F)(F)F` [Compound I-51], the “control of Abutilon theophrasti” value (Abutilon theophrasti; 1.0 kg of a.s./ha) is reported as “very good control” and the “control of Chenopodium album” value (Chenopodium album) is reported as “very good control”.
With `CNC(=O)[C@H](Cc1cccc(F)c1)NC(=O)c1cccc(F)c1C(F)(F)F` [Compound I-24] the “control of Abutilon theophrasti” value (Abutilon theophrasti; 0.5 kg of a.s./ha) was “very good control” and the “control of Sinapis alba” value (Sinapis alba; 0.5 kg of a.s./ha) was “very good control”.
